{"source": "patent US20250049926A1", "about": "“PHARMACEUTICAL COMPOSITIONS COMPRISING MODIFIED BETACYCLODEXTRINS” (priority 2021, published 2025)", "key": {"[1]": {"experiment": "Formulation stability with SBE-beta-CD (assay and impurities by HPLC, stressed storage)", "format": "physicochemical", "experimental": "500 mL batches of each formulation (target pH 4.0 and pH 5.5) are prepared according to the recipe in Table 2 below. The vials used were 50 mL 20 mm Crown, type I, Vial (Gerresheimer), part number 80018303030. The stoppers used were 20 mm S10-F451 Stopper 4432/50 Gray, (Flurotec™ On Plug Only) B2-40 Coating Westar RS part number 19700021.\nEach formulation is filtered with a 0.22 μm nylon syringe filter. Vials are filled with 10 mL of formulation, stoppered, sealed and placed at 40° C./75% relative humidity (RH) or at 60° C. (uncontrolled humidity) for up to 14 days. Each vial is placed inverted so that maximum stopper contact with the solution during the stability conditions can be achieved. At each time-point, vials from both conditions and formulations are pulled and analyzed for assay and impurities.\nThe assay and impurities as measured using the same HPLC method as used for assessing solubility."}, "[2]": {"experiment": "Log P of free base", "format": "physicochemical", "experimental": "The compound of formula (I) as a free base compound has a quite strong lipophilic behavior (Log P 4.13). […] Taking into account these characteristics, and based on pH requirements for intravenous (IV) solutions which is generally set ≥4.0, solubility studies were carried out to identify solubilizers able to substantially increase the aqueous solubility of the compound of formula (I)."}, "[3]": {"details": "Formulation pH 4.0 (2 mg/mL, SBE-beta-CD 40 mg/mL), 40° C./75% RH, time zero, pH exp 4.1"}, "[4]": {"details": "Formulation pH 4.0, 40° C./75% RH, Day 1, pH exp 4.1"}, "[5]": {"details": "Formulation pH 4.0, 40° C./75% RH, Day 3, pH exp 4.0"}, "[6]": {"details": "Formulation pH 4.0, 40° C./75% RH, Day 7, pH exp 4.1"}, "[7]": {"details": "Formulation pH 4.0, 40° C./75% RH, Day 14, pH exp 4.1"}, "[8]": {"details": "Formulation pH 4.0, 60° C., Day 1, pH exp 4.1"}, "[9]": {"details": "Formulation pH 4.0, 60° C., Day 3, pH exp 4.1"}, "[10]": {"details": "Formulation pH 4.0, 60° C., Day 7, pH exp 4.1"}, "[11]": {"details": "Formulation pH 4.0, 60° C., Day 14, pH exp 4.1"}, "[12]": {"details": "Formulation pH 4.0, 60° C., time zero, pH exp 4.1"}, "[13]": {"details": "Formulation pH 5.5 (2 mg/mL, SBE-beta-CD 40 mg/mL), 40° C./75% RH, time zero, pH exp 5.6"}, "[14]": {"details": "Formulation pH 5.5, 40° C./75% RH, Day 1, pH exp 5.6"}, "[15]": {"details": "Formulation pH 5.5, 40° C./75% RH, Day 3, pH exp 5.6"}, "[16]": {"details": "Formulation pH 5.5, 40° C./75% RH, Day 7, pH exp 5.7"}, "[17]": {"details": "Formulation pH 5.5, 40° C./75% RH, Day 14, pH exp 5.6"}, "[18]": {"details": "Formulation pH 5.5, 60° C., Day 1, pH exp 5.6"}, "[19]": {"details": "Formulation pH 5.5, 60° C., Day 3, pH exp 5.6"}, "[20]": {"details": "Formulation pH 5.5, 60° C., Day 7, pH exp 5.7"}, "[21]": {"details": "Formulation pH 5.5, 60° C., Day 14, pH exp 5.7"}, "[22]": {"details": "Formulation pH 5.5, 60° C., time zero, pH exp 5.6"}}}
{"compound": "COc1cc(N2CCNCC2)ccc1Nc1ncc2c(n1)-n1ccc(C(=O)Nc3c(C)cccc3C)c1CC2", "note": "[compound of formula (I)]", "values": [{"measurement": "stability of formulation with SBE-beta-CD", "setting": "[1]; 60° C. stressed conditions, formulation at pH 5.5 compared to pH 4.0", "value": "lower impurities and lower loss of assay"}, {"measurement": "Assay (% of theoretical value of compound of formula (I))", "setting": "[1]; [3]", "value": 96.8, "unit": "%"}, {"measurement": "Total impurities", "setting": "[1]; [3]", "value": 1.1, "unit": "% area"}, {"measurement": "Assay (% of theoretical value of compound of formula (I))", "setting": "[1]; [4]", "value": 98.1, "unit": "%"}, {"measurement": "Total impurities", "setting": "[1]; [4]", "value": 1.1, "unit": "% area"}, {"measurement": "Assay (% of theoretical value of compound of formula (I))", "setting": "[1]; [5]", "value": 98.7, "unit": "%"}, {"measurement": "Total impurities", "setting": "[1]; [5]", "value": 1.3, "unit": "% area"}, {"measurement": "Assay (% of theoretical value of compound of formula (I))", "setting": "[1]; [6]", "value": 103.1, "unit": "%"}, {"measurement": "Total impurities", "setting": "[1]; [6]", "value": 1.3, "unit": "% area"}, {"measurement": "Assay (% of theoretical value of compound of formula (I))", "setting": "[1]; [7]", "value": 97.7, "unit": "%"}, {"measurement": "Total impurities", "setting": "[1]; [7]", "value": 1.4, "unit": "% area"}, {"measurement": "Assay (% of theoretical value of compound of formula (I))", "setting": "[1]; [8]", "value": 97.9, "unit": "%"}, {"measurement": "Total impurities", "setting": "[1]; [8]", "value": 1.4, "unit": "% area"}, {"measurement": "Assay (% of theoretical value of compound of formula (I))", "setting": "[1]; [9]", "value": 98.3, "unit": "%"}, {"measurement": "Total impurities", "setting": "[1]; [9]", "value": 2.0, "unit": "% area"}, {"measurement": "Assay (% of theoretical value of compound of formula (I))", "setting": "[1]; [10]", "value": 97.9, "unit": "%"}, {"measurement": "Total impurities", "setting": "[1]; [10]", "value": 3.4, "unit": "% area"}, {"measurement": "Assay (% of theoretical value of compound of formula (I))", "setting": "[1]; [11]", "value": 87.0, "unit": "%"}, {"measurement": "Total impurities", "setting": "[1]; [11]", "value": 4.7, "unit": "% area"}, {"measurement": "Assay (% of theoretical value of compound of formula (I))", "setting": "[1]; [12]", "value": 96.8, "unit": "%"}, {"measurement": "Total impurities", "setting": "[1]; [12]", "value": 1.1, "unit": "% area"}, {"measurement": "Assay (% of theoretical value of compound of formula (I))", "setting": "[1]; [13]", "value": 99.0, "unit": "%"}, {"measurement": "Total impurities", "setting": "[1]; [13]", "value": 1.1, "unit": "% area"}, {"measurement": "Assay (% of theoretical value of compound of formula (I))", "setting": "[1]; [14]", "value": 97.9, "unit": "%"}, {"measurement": "Total impurities", "setting": "[1]; [14]", "value": 1.2, "unit": "% area"}, {"measurement": "Assay (% of theoretical value of compound of formula (I))", "setting": "[1]; [15]", "value": 100.6, "unit": "%"}, {"measurement": "Total impurities", "setting": "[1]; [15]", "value": 1.3, "unit": "% area"}, {"measurement": "Assay (% of theoretical value of compound of formula (I))", "setting": "[1]; [16]", "value": 100.1, "unit": "%"}, {"measurement": "Total impurities", "setting": "[1]; [16]", "value": 1.2, "unit": "% area"}, {"measurement": "Assay (% of theoretical value of compound of formula (I))", "setting": "[1]; [17]", "value": 94.7, "unit": "%"}, {"measurement": "Total impurities", "setting": "[1]; [17]", "value": 1.3, "unit": "% area"}, {"measurement": "Assay (% of theoretical value of compound of formula (I))", "setting": "[1]; [18]", "value": 97.9, "unit": "%"}, {"measurement": "Total impurities", "setting": "[1]; [18]", "value": 1.3, "unit": "% area"}, {"measurement": "Assay (% of theoretical value of compound of formula (I))", "setting": "[1]; [19]", "value": 100.6, "unit": "%"}, {"measurement": "Total impurities", "setting": "[1]; [19]", "value": 1.5, "unit": "% area"}, {"measurement": "Assay (% of theoretical value of compound of formula (I))", "setting": "[1]; [20]", "value": 100.1, "unit": "%"}, {"measurement": "Total impurities", "setting": "[1]; [20]", "value": 2.0, "unit": "% area"}, {"measurement": "Assay (% of theoretical value of compound of formula (I))", "setting": "[1]; [21]", "value": 97.7, "unit": "%"}, {"measurement": "Total impurities", "setting": "[1]; [21]", "value": 3.0, "unit": "% area"}, {"measurement": "Assay (% of theoretical value of compound of formula (I))", "setting": "[1]; [22]", "value": 99.0, "unit": "%"}, {"measurement": "Total impurities", "setting": "[1]; [22]", "value": 1.1, "unit": "% area"}, {"measurement": "stability of formulation with SBE-beta-CD", "setting": "[1]; pH 4.0 versus pH 5.5 at 40° C./75% RH stressed conditions", "value": "similar"}, {"measurement": "logP", "setting": "[2]", "value": 4.13}]}
